{
  "source": "paper PMC13372822",
  "about": "(The EMBO Journal, 2026)",
  "type_in_all_cases": "cell-based",
  "key": {"[1]": {"target": "T1, SUCR1 mutants (variant named in the endpoint) (Homo sapiens, UniProt Q9BXA5, Y248F)", "T1 construct": "The full-length human SUCR1 and mutations were fused after the HA signal peptide and Flag tag; HA signal peptide (N); Flag (N); expressed in transfected cells; host or cells: HEK293 stably expressing Gα16 (pcDNA6.0, transient electroporation)", "T1 sequence (Q9BXA5 1-334 Y248F)": "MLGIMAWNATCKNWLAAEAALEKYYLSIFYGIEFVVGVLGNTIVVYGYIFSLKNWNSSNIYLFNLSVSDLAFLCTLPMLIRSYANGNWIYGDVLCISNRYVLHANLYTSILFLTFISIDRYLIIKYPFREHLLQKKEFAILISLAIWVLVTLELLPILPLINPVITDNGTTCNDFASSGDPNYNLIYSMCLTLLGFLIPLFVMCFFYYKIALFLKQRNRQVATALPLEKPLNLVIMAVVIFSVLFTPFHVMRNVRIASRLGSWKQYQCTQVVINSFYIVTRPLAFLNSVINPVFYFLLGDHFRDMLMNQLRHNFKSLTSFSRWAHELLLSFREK", "experiment": "Calcium mobilization assay, SUCR1 mutants in HEK293 stably expressing Gα16;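 for Emax: percent of the maximal response to succinate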", "experimental": "(§1) The full-length human SUCR1 and mutations were fused after the HA signal peptide and Flag tag. The constructs were cloned into pcDNA6.0 vector for HEK293 system.\n(§2) HEK293 cells were obtained from ATCC (Manassas, VA, USA) and cultured in DMEM supplemented with 10% (v/v) FBS, 100 mg/L penicillin, and 100 mg/L streptomycin in 5% CO2 at 37 °C. For transient transfection, ~2.5 × 10^6 cells were mixed with 2 µg plasmids in 200 µL transfection buffer, and electroporation was carried out with a Scientz-2C electroporation apparatus (Scientz Biotech, Ningbo, China). The experiments were carried out 24 h after transfection. HEK293 cell lines stably expressing Gα16 were constructed by our laboratory.\n(§3) For OXGR1, plasmids were transfected into HEK293 (other receptors were transfected into HEK293 stably expressing Gα16) and seeded at a density of 4 × 10^4 per well into 96-well culture plates and incubated for 24 h at 37 °C in 5% CO2. The next day, Cells were incubated with 2 μM/L Fluo-4 AM in HBSS supplemented with 5.6 mM/L D-glucose and 250 μM/L sulfinpyrazone at 37 °C for 45 min. […] Three independent measurements were repeated, i.e., three different transfections, with three technical replicates performed for each experiment. EC50 and Emax values for each curve were calculated by Prism 8.0 software (GraphPad Software)."}, "[2]": {"target": "T2, SUCR1 mutants (variant named in the endpoint) (Homo sapiens, UniProt Q9BXA5, F285A/L102F)", "T2 construct": "The full-length human SUCR1 and mutations were fused after the HA signal peptide and Flag tag; HA signal peptide (N); Flag (N); expressed in transfected cells; host or cells: HEK293 stably expressing Gα16 (pcDNA6.0, transient electroporation)", "T2 sequence (Q9BXA5 1-334 L102F/F285A)": "T1 sequence (Q9BXA5 1-334 Y248F) with L102F, F248Y, F285A", "experiment": "Calcium mobilization assay, SUCR1 mutants in HEK293 stably expressing Gα16", "experimental": "as §1, §2, §3"}, "FFAR3": {"target": "T3, FFAR3 (Homo sapiens, UniProt O14843)", "T3 construct": "expressed in transfected cells; host or cells: HEK293 stably expressing Gα16", "T3 sequence (O14843 1-346)": "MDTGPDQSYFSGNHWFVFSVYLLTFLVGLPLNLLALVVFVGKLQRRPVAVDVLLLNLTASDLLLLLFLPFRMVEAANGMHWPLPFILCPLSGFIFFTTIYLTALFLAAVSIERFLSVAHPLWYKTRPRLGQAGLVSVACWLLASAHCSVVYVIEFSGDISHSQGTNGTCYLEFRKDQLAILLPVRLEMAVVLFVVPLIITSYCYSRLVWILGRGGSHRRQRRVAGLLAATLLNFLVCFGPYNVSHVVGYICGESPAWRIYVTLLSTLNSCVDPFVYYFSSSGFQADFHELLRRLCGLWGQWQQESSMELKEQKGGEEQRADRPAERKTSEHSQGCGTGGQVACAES", "experiment": "Calcium mobilization assay, FFAR3 in HEK293 stably expressing Gα16", "details": "in words; related receptor", "experimental": "as §2, §3"}, "[3]": {"target": "T4, SUCR1 mutants (variant named in the endpoint) (Homo sapiens, UniProt Q9BXA5, I157M)", "T4 construct": "The full-length human SUCR1 and mutations were fused after the HA signal peptide and Flag tag; HA signal peptide (N); Flag (N); expressed in transfected cells; host or cells: HEK293 stably expressing Gα16 (pcDNA6.0, transient electroporation)", "T4 sequence (Q9BXA5 1-334 I157M)": "T1 sequence (Q9BXA5 1-334 Y248F) with I157M, F248Y", "experiment": "Calcium mobilization assay, SUCR1 mutants in HEK293 stably expressing Gα16", "experimental": "as §1, §2, §3"}, "SUCR1": {"target": "T5, SUCR1 (Homo sapiens, UniProt Q9BXA5)", "T5 construct": "The full-length human SUCR1 and mutations were fused after the HA signal peptide and Flag tag; HA signal peptide (N); Flag (N); expressed in transfected cells; host or cells: HEK293 stably expressing Gα16 (pcDNA6.0, transient electroporation)", "T5 sequence (Q9BXA5 1-334)": "T1 sequence (Q9BXA5 1-334 Y248F) with F248Y", "experiment": "Calcium mobilization assay, wild-type SUCR1 in HEK293 stably expressing Gα16;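 for Emax: percent of the maximal response to succinate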", "details": "for activation of SUCR1: in words", "experimental": "as §1, §2, §3"}, "OXGR1": {"target": "OXGR1 (Homo sapiens, UniProt Q96P68)", "experiment": "cAMP assay, Gi pathway (OXGR1-Gi-cAMP Assay)", "design": "The full-length human OXGR1 and mutations were fused after the HA signal peptide and Flag tag; HA signal peptide (N); Flag (N); expressed in transfected cells; host or cells: HEK293 (pcDNA3.0, transient electroporation)", "details": "OXGR1 WT", "protocol": "In brief, cells expressing OXGR1 were seeded in a plate at a density of 1 × 10^6 cells/well and cultured overnight. After 24 h culture, cells were harvested and re-suspended in DMEM containing 500 µM IBMX at a density of 2 × 10^5 cells/mL. Then, cells were plated onto 384-well assay plates at a density of 1000 cells/5 µL/well. Another 5 µL buffer containing compounds at various concentrations was added to the cells, and the incubation lasted for 30 min at 37 °C. Intracellular cAMP level was tested by a LANCE Ultra cAMP kit (PerkinElmer, TRF0264) and EnVision multiplate reader according to the manufacturer’s instructions."}},
  "note": "Where a chain is given by its changes, count along the chain named.",
  "data": [
    {"smiles": "O=C(O)CCC(=O)O", "note": "[SUC, succinate]", "values": [
      {"measurement": "EC50", "setting": "[1]; SUCR1 Y248F", "result": "810 ± 90", "unit": "µM"},
      {"measurement": "EC50", "setting": "[2]; SUCR1 F285A-L102F", "result": "460 ± 80", "unit": "µM"}
    ]},
    {"smiles": "O=C(O)CCC(=O)C(=O)O", "note": "[AKG, α-ketoglutarate]", "values": [
      {"measurement": "activation of FFAR3", "setting": "FFAR3", "result": "no cross-reactivity"},
      {"measurement": "Emax", "setting": "[3]; HEK293", "result": "0.43 ± 0.8", "unit": "%"},
      {"measurement": "Emax", "setting": "[2]; HEK293", "result": "5.5 ± 1", "unit": "%"},
      {"measurement": "Emax", "setting": "SUCR1; HEK293", "result": "3.5 ± 3", "unit": "%"},
      {"measurement": "activation of SUCR1", "setting": "SUCR1", "result": "no cross-reactivity"},
      {"measurement": "activation of Gi signaling", "setting": "OXGR1", "result": "no detectable activation"}
    ]},
    {"smiles": "C=C(CC(=O)O)C(=O)O", "note": "[ITA, itaconate]", "values": [
      {"measurement": "activation of FFAR3", "setting": "FFAR3", "result": "no detectable activation"},
      {"measurement": "Emax", "setting": "[3]; HEK293, SUCR1 I157M, Emax relative to the SUC", "result": "-0.44 ± 1", "unit": "%"},
      {"measurement": "Emax", "setting": "[1]; HEK293, SUCR1 Y248F, Emax relative to the SUC", "result": "15 ± 2", "unit": "%"},
      {"measurement": "activation of SUCR1", "setting": "SUCR1", "result": "only minimal activation"},
      {"measurement": "activation of Gi signaling", "setting": "OXGR1", "result": "no detectable activation"}
    ]}
  ]
}
